Test results taken from patent US20060189539A1, “Novel GnRH analogues with antitumour effects and pharmaceutical compositions thereof” (priority 1994, published 2006).
Non-standard residues stand in square brackets, D forms with d. Residues, ends and D or L forms follow the SMILES beside them. dPhe(4-Cl) = N[C@H](Cc1ccc(Cl)cc1)C(=O)O

Legend:
[1] = tested on: MCF-7 human mammary carcinoma cell line; experiment: Inhibition of colony formation (dose-survival), Example 48; format: cell-based
Excerpt: MCF-7 human mammary carcinoma cell line was stabilized in 1973 by Soule et al. from the pleural fluid of a patient suffering from mammary carcinoma. MDA-MB-231 human mammary carcinoma cell line was isolated and stabilized by Cailleau et al. in 1974 similarly from pleural fluid. Both cell lines grow in monolayer. […] MCF-7 cell line is estradiol receptor (ER)-positive containing proteins specifically binding GnRH. Thus, it represents, a useful model system for investigating the direct effect of GnRH mediated by the GnRH receptor. Being ER-negative and GnRH receptor-positive, MDA-MB-231 cell line is similarly suitable to study the direct effect of GnRH. PC3 human prostate carcinoma cell line was stabilized in cell culture by Kaighn et al. in 1979. The cells are of epithelial type and form compact colonies in clonogenic assays. The Ishikawa cell line originates from human endometrial adenocarcinoma [M. Nishida et al.: Acta Obstet. Gynecol. Jpn. 37, 1103-1111 (1985)], it is epithelial in its character and contains steroid-as well as GnRH receptors. The examination gives accurate information about the cell-damaging effect of the substance tested as a function of varying doses. The treatment was carried out once; the colonies formed from the surviving cells were counted after 8-12 days. […] A part of the arrested cells again entered the cycle, an other part of them might be destroyed (apoptosis). […] The treatment was once carried out 24 hours after setting, then the colonies formed were counted after 8-12 days. The cells were treated once after 24 hours with 1-50 μM of various GnRH analogues of Examples above or with 1-50 μM of GnRH-III, respectively. The percentages of inhibition obtained on MCF-7, MDA-MB-231, PC3 and Ishikawa cells, respectively, together with the dose of the active agent used are shown in Table VIII.

[2] = tested on: MDA-MB-231 human mammary carcinoma cell line; experiment: as above; format: cell-based
Excerpt: (§1) MCF-7 human mammary carcinoma cell line was stabilized in 1973 by Soule et al. from the pleural fluid of a patient suffering from mammary carcinoma. MDA-MB-231 human mammary carcinoma cell line was isolated and stabilized by Cailleau et al. in 1974 similarly from pleural fluid. Both cell lines grow in monolayer. MCF-7 and MDA-MB-231 human mammary carcinoma cell lines are maintained in plastic flasks (Greiner), in Dulbecco-modified Eagle-MEM (DMEM, GIBCO) liquid nutrient medium containing 10% of fetal calf serum. MCF-7 cell line is estradiol receptor (ER)-positive containing proteins specifically binding GnRH. Thus, it represents, a useful model system for investigating the direct effect of GnRH mediated by the GnRH receptor. Being ER-negative and GnRH receptor-positive, MDA-MB-231 cell line is similarly suitable to study the direct effect of GnRH. PC3 human prostate carcinoma cell line was stabilized in cell culture by Kaighn et al. in 1979. The cells are of epithelial type and form compact colonies in clonogenic assays. The Ishikawa cell line originates from human endometrial adenocarcinoma [M. Nishida et al.: Acta Obstet. Gynecol. Jpn. 37, 1103-1111 (1985)], it is epithelial in its character and contains steroid-as well as GnRH receptors.
(§2) The examination gives accurate information about the cell-damaging effect of the substance tested as a function of varying doses. The treatment was carried out once; the colonies formed from the surviving cells were counted after 8-12 days. […] A part of the arrested cells again entered the cycle, an other part of them might be destroyed (apoptosis). […] In the case of a dose-response investigation, colonies containing less than 15 cells were not counted. 300 cells were put into each Petri dishes of 3.5 cm in diameter. The treatment was once carried out 24 hours after setting, then the colonies formed were counted after 8-12 days. The cells were treated once after 24 hours with 1-50 μM of various GnRH analogues of Examples above or with 1-50 μM of GnRH-III, respectively. The percentages of inhibition obtained on MCF-7, MDA-MB-231, PC3 and Ishikawa cells, respectively, together with the dose of the active agent used are shown in Table VIII.

human tumor cell lines = experiment: Colony formation, Example 48, comparison with control D-Trp6-hGnRH; format: cell-based; settings: data of Table VIII
Protocol: as §2
In these studies the D-Trp6-hGnRH analogue (Sigma Co.) commonly used in the tumour therapy was employed as control.

[3] = tested on: Ishikawa human endometrium carcinoma cell line; experiment: Inhibition of colony formation (dose-survival), Example 18; format: cell-based; settings: 50 μM
Excerpt: (§3) Human cell lines used in in vitro experiments. MCF-7 human mammary tumour cell line was stabilized in 1973 by Soule et al. from the pleural fluid of mammary carcinoma patients. The cells grow in monolayer and are epithelial in their character. MDA-MB-231 human mammary carcinoma cell line was isolated and stabilized in 1974 by Cailleau et al. similarly from pleural fluid. These cells also grow in monolayer. PC3 human prostate carcinoma cell line was stabilized 20 in 1979 in cell culture by Kaighn et al.; the cells are of simple epithelium type and form compact colonies in clonogenic assays. Ishikawa cell line originated from adenocarcinoma of human endometrium [Nishida et al.: Obstet. Gynecol. Jpn, 37, 25 1103-1111 (1985)], has epithelial character and contains steroid as well as GnRH receptors. Human tumour cell lines are maintained in plastic flasks (Greiner) in Dulbecco-6modified Eagle-MEM (DMEM GIBCO) nutritive medium. The medium used herein contained 10% of fetal calf serum (FCS).
(§4) In the case of cytostatics the cell-damaging effect is not cell-specific. […] One part of the arrested cells again go into the cycle, the other part may perish (apoptosis). […] The investigations were carried out on MCF-7 and MDA-MB-231 human mammary carcinoma cell lines, PC3 human prostate 15 carcinoma cell line and Ishikawa human endometrium carcinoma cell line. Threehundred cells were set into Petri dishes of 3.5 cm in diameter each. The treatment was carried out once, 24 hours following the explantation, then the colonies formed were counted after 9 to 12 days.

[4] = tested on: MCF-7 human mammary carcinoma cell line; experiment: as above; format: cell-based; settings: 50 μM
Excerpt: as §3, §4

[5] = tested on: Ishikawa endometrium tumour cell culture; experiment: Inhibition of colony formation (dose-survival), Example 48; format: cell-based, human; settings: 50 μM
Excerpt: as §1, §2

[6] = tested on: PC3 prostate tumour cell culture; experiment: as above; format: cell-based, human; settings: for % Inhibition of colony formation: 50 μM; for Effect on colony-forming ability: within the dose range used (1-50 μM)
Excerpt: as §1, §2

MXT mouse mammary tumour = experiment: In vivo antitumour effect on MXT mouse mammary tumour; set-up: species or system CBA/Ca mice
Protocol: The MXT mouse mammary carcinoma contains ER and PgR proteins; furthermore, it contains also GnRH receptors; therefore, this in vivo tumor model is suitable for studying both the direct and indirect effects. The treatment of mice bearing MXT mammary tumour was commenced on the day following transplantation. […] The animals were daily treated in s.c. route starting from the day following transplantation of MXT mouse mammary tumour. […] MI-1544: 75 μg/day/animal; MI-1892: 75 μg/day/animal.

[7] = tested on: PC3 human prostate carcinoma cell line; experiment: Inhibition of colony formation (dose-survival), Example 18; format: cell-based; settings: 50 μM
Excerpt: as §3, §4

## CC(C)C[C@H](NC(=O)[C@@H](Cc1c[nH]c2ccccc12)NC(=O)[C@H](Cc1ccc(O)cc1)NC(=O)[C@H](CO)NC(=O)[C@H](Cc1c[nH]c2ccccc12)NC(=O)[C@H](Cc1c[nH]cn1)NC(=O)[C@@H]1CCC(=O)N1)C(=O)N[C@@H](CCCNC(=N)N)C(=O)N1CCC[C@H]1C(=O)NCC(N)=O [D-Trp6-hGnRH, pGlu-His-Trp-Ser-Tyr-D-Trp-Leu-Arg-Pro-Gly-NH2, reference compound]
[1]; 10 μM
  % Inhibition of colony formation: 17.1%
[1]; 50 μM
  % Inhibition of colony formation: 36.7%
[2]; 10 μM
  % Inhibition of colony formation: 15.7%
[2]; 50 μM
  % Inhibition of colony formation: 38.7%

## H-Glu^1, D-Trp^6-hGnRH [Compound 19]
[1]; 10 μM
  % Inhibition of colony formation: 16.8%
[1]; 50 μM
  % Inhibition of colony formation: 32.7%
Human tumor cell lines
  Inhibitory effect on colony formation compared with control D-Trp6-hGnRH: approximated the activity of the control

## Lys^5,cyclo[Asp^6-Lys^8]-GnRH-III [Compound 3]
[3]
  % Inhibition of colony formation: 13%
[4]
  % Inhibition of colony formation: 44%
[1]; 50 μM
  % Inhibition of colony formation: 44%
[5]
  % Inhibition of colony formation: 13%
Human tumor cell lines
  Inhibitory effect on colony formation compared with control D-Trp6-hGnRH: exceeded the inhibitory effect of control

## Phe^7-GnRH-III [Compound 15]
[2]; 50 μM
  % Inhibition of colony formation: 21%
Human tumor cell lines
  Inhibitory effect on colony formation compared with control D-Trp6-hGnRH: weak if any effect

## Ac-D-Trp^1,3,D-Cpa2,{Lys[n-poly(N-vinylpyrrolidone-co-maleic acid)-Ahx]}5,[a-Asp(DEA)]6,D-Ala10-GnRH [P-Ahx-1892]
[1]; 50 μM
  % Inhibition of colony formation: 31%

## [Trp(For-Ind)]^3,7-GnRH-III [Compound 14]
[5]
  % Inhibition of colony formation: 24%
Human tumor cell lines
  Inhibitory effect on colony formation compared with control D-Trp6-hGnRH: approximated the activity of the control

## [Lys(ε-Ac)]^4-GnRH-III [Compound 7]
[1]; 50 μM
  % Inhibition of colony formation: 52%
[2]; 10 μM
  % Inhibition of colony formation: 31%
[2]; 50 μM
  % Inhibition of colony formation: 42%
[5]
  % Inhibition of colony formation: 14%
[6]
  % Inhibition of colony formation: 0%
  Effect on colony-forming ability: did not influence
Human tumor cell lines
  Inhibitory effect on colony formation compared with control D-Trp6-hGnRH: exceeded the inhibitory effect of control

## Glu^6-GnRH-III [Compound 8]
[2]; 50 μM
  % Inhibition of colony formation: 25%
[5]
  % Inhibition of colony formation: 2%
[6]
  % Inhibition of colony formation: 31%
Human tumor cell lines
  Inhibitory effect on colony formation compared with control D-Trp6-hGnRH: exceeded the inhibitory effect of control

## Lys^5, D-Trp^6-hGnRH [Compound 17]
[1]; 50 μM
  % Inhibition of colony formation: 65%
[2]; 10 μM
  % Inhibition of colony formation: 30%
[2]; 50 μM
  % Inhibition of colony formation: 63%
[5]
  % Inhibition of colony formation: 17%
[6]
  % Inhibition of colony formation: 18%
  Effect on colony-forming ability: weakly inhibited
Human tumor cell lines
  Inhibitory effect on colony formation compared with control D-Trp6-hGnRH: twice stronger inhibition

## CC(=O)N[C@H](Cc1c[nH]c2ccccc12)C(=O)N[C@H](Cc1ccc(Cl)cc1)C(=O)N[C@H](Cc1c[nH]c2ccccc12)C(=O)N[C@@H](CO)C(=O)N[C@@H](Cc1ccc(O)cc1)C(=O)N[C@H](CCCCN)C(=O)N[C@@H](CC(C)C)C(=O)N[C@@H](CCCNC(=N)N)C(=O)N1CCC[C@H]1C(=O)N[C@H](C)C(N)=O [MI-1544, Ac-D-Trp^1,3,D-Cpa^2,D-Lys^6, D-Ala^10-hGnRH] (Ac-[dW][dPhe(4-Cl)][dW]SY[dK]LRP[dA]-NH2)
MXT mouse mammary tumour; 75 μg/day/animal s.c., day 20
  Tumour volume as control (%): 54%
MXT mouse mammary tumour; 1 × 75 μg daily s.c.
  Inhibition %: 46%
MXT mouse mammary tumour; 1 × 75 μg daily s.c., Treatment weeks: 20
  Tumour volume as control (%): 54%

## Lys^5-GnRH-III [Compound 2]
[1]; 50 μM
  % Inhibition of colony formation: 0%
[2]; 50 μM
  % Inhibition of colony formation: 0%

## {D-Lys[n-poly(N-vinylpyrrolidone-co-maleic acid)-Gly-Phe-Leu-Gly]}6,-GnRH [P-GFLG-609]
[1]; 10 μM
  % Inhibition of colony formation: 40%

## {Lys[n-poly(N-vinylpyrrolidone-co-maleic acid)-Gly-Phe-Leu-Gly-]}5,cyclo(Asp6-Lys8)-GnRH-III [P-GFLG-Lys5-cyclo(Asp6,Lys8)-GnRH-III]
[3]
  % Inhibition of colony formation: 19%
[7]
  % Inhibition of colony formation: 100%

## [Lys(ε-Fmoc)]^5-GnRH-III [Compound 1]
Human tumor cell lines
  Inhibitory effect on colony formation compared with control D-Trp6-hGnRH: weak if any effect
